# Test results as given in patent US11413278B2, “Compounds and methods for promoting stress resistance” (priority 2015, dated 2022).
# Read-outs that look alike come from different tables or passages of the source.
# Legend:
# [1] = system: NRF2; experiment: qPCR analysis of NRF2-regulated genes; type: cell-based, human; details: for fold induction at 10 µM: Homo sapiens
# Summary of the method: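 WI-38 cells treated with compound at 10 μM for 24 hrs, then processed by Cells-to-Ct for RNA isolation, RT and qPCR of NRF2-regulated genes (HMOX1, NQO1, GCLC, GSTM1). Expression normalized to B2M, PPIA and GAPDH; siRNA knockdown of FOXO3 or NRF2 (10 nM) preceded treatment in some runs.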
# [2] = system: LC3A/B puncta; experiment: Autophagy induction analysis (LC3A/B puncta immuno-staining); type: cell-based, human
# Summary of the method: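 WI-38 cells were treated with compounds for 24 hrs, then immunostained for LC3A/B (overnight, 4° C) with DAPI counterstain and imaged by high-content microscopy. Experiment 1 used total puncta intensity. Experiment 2 used LAMP2-colocalized (lysosomal) puncta. Intensity was normalized to nuclei count.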
# [3] = system: WI-38 cells; experiment: Long-term effects on cell viability (5 days, ATP; morphology, PI imaging); type: cell-based; details: 10 μM; for Luminescence signal for ATP measurement, day-1 Average / Luminescence signal for ATP measurement, day-2 Average / Luminescence signal for ATP measurement, day-3 Average / Luminescence signal for ATP measurement, day-4 Average / Luminescence signal for ATP measurement, day-5 Average / viability at 10 µM: Batch 1; for Luminescence signal for ATP measurement, day-1 Average / Luminescence signal for ATP measurement, day-2 Average / Luminescence signal for ATP measurement, day-3 Average / Luminescence signal for ATP measurement, day-4 Average / Luminescence signal for ATP measurement, day-5 Average: n = 6, day-0 luminescence = 320956 ± 24708; for viability at 10 µM: Homo sapiens, WI-38, 120 h, DMSO ctrl = 100.0%, read-out: ATP luminescence by day-5 normalized; for Luminescence signal for ATP measurement, day-5 Average / viability at 10 µM: day-5;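 as to Luminescence signal for ATP measurement, day-2 Average: compounds at 10 µM with ATP read daily over 5 days of treatment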;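 as to Luminescence signal for ATP measurement, day-3 Average: compounds at 10 µM with ATP read daily over 5 days of treatment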;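 as to Luminescence signal for ATP measurement, day-4 Average: compounds at 10 µM with ATP read daily over 5 days of treatment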;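 as to Luminescence signal for ATP measurement, day-5 Average: compounds at 10 µM with ATP read daily over 5 days of treatment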
# [4] = 24 h, Assay 12(o), at 10 uM, qPCR, read-out: Induction of NRF2-regulated genes: GCLC normalized fold-change
# [5] = 24 h, Assay 12(o), at 10 uM, qPCR, read-out: Induction of NRF2-regulated genes: GSTM1 normalized fold-change
# [6] = rounded fold change, WI-38 cells, 10 μM, 24 hrs (RP29 for Gr-4D), read-out: Summary of effects on NRF2-regulated genes: GSTM1
# [7] = 10 μM, 24 hrs, WI-38 cells, qPCR, normalized to B2M, n = 4, read-out: GSTM1 expression, normalized fold change (NRF2-regulated gene)
# [8] = WI-38 cells, 10 μM, 24 hrs, n=4, qPCR normalized by B2M, read-out: GCLC Normalized fold change
# [9] = WI-38 cells, 10 μM, 24 hrs, n=4, qPCR normalized by B2M, read-out: GSTM1 Normalized fold change
# [10] = WI-38 cells, 10 μM, 24 hrs, n=4, qPCR normalized by B2M, read-out: HMOX1 Normalized fold change
# [11] = WI-38 cells, 10 μM, 24 hrs, n=4, qPCR normalized by B2M, read-out: NQO1 Normalized fold change
smiles,measurement,setting,value
O=C(NCc1cccnc1)/C(=C/c1ccc(-c2ccc(Cl)cc2)o1)S(=O)(=O)c1ccccc1 [Gr-7C],F = Potential NRF2 Activation,[1]; 2-point score,2
same,"Potential NRF2 Activation (>=2 target genes induced, by >=1.5-fold)",[1]; Assay 13(p),YES
same,fold induction at 10 µM,[1]; [4],2.27
same,fold induction at 10 µM,[1]; [5],0.78
same,fold induction at 10 µM,"[1]; 24 h, Assay 12(o), at 10 uM, qPCR, read-out: Induction of NRF2-regulated genes: HMOX1 normalized fold-change",28.1
same,fold induction at 10 µM,"[1]; rounded fold change, WI-38 cells, 10 μM, 24 hrs (RP11 for Gr-1D, RP29 for Gr-4D), read-out: Summary of effects on NRF2-regulated genes: HMOX1",28.1
same,fold induction at 10 µM,[1]; [6],0.78
same,fold induction at 10 µM,"[1]; rounded fold change, WI-38 cells, 10 μM, 24 hrs, read-out: Summary of effects on NRF2-regulated genes: GCLC",2.27
same,fold induction at 10 µM,"[1]; 10 μM, 24 hrs, WI-38, read-out: Expression of at least two NRF2 target genes",> 1.5
same,fold induction at 10 µM,"[1]; 10 μM, 24 hrs, WI-38 cells, qPCR, normalized to B2M, n = 4, read-out: GCLC expression, normalized fold change (NRF2-regulated gene)",2.27
same,fold induction at 10 µM,[1]; [7],0.78
same,fold induction at 10 µM,"[1]; 10 μM, 24 hrs, WI-38 cells, qPCR, normalized to B2M, n = 4, read-out: HMOX1 expression, normalized fold change (NRF2-regulated gene)",28.1
same,fold induction at 10 µM,[1]; [8],2.27
same,fold induction at 10 µM,[1]; [9],0.784
same,fold induction at 10 µM,[1]; [10],28
same,fold induction at 10 µM,[1]; [11],0.811
same,F = Potential NRF2 Activation,[1]; summary score,2
same,H = Potential Autophagy Induction,[2]; score,0
same,H = Potential Autophagy Induction,[2]; summary score,0
same,"Luminescence signal for ATP measurement, day-1 Average",[3],378655
same,"Luminescence signal for ATP measurement, day-2 Average",[3],140712
same,"Luminescence signal for ATP measurement, day-3 Average",[3],84446
same,"Luminescence signal for ATP measurement, day-4 Average",[3],72490
same,"Luminescence signal for ATP measurement, day-5 Average",[3],127440
same,viability at 10 µM,[3],12.4%
same,O = Potential toxicity,"[3]; human, 5 days",0
same,Q = Potential toxicity,"[3]; human, 5 days",1
O=C(Nc1cc(C(F)(F)F)ccc1Cl)c1ccc([N+](=O)[O-])o1 [Gr-1B],F = Potential NRF2 Activation,[1]; 2-point score,0
same,fold induction at 10 µM,[1]; [4],1.24
same,fold induction at 10 µM,[1]; [5],1.44
same,fold induction at 10 µM,"[1]; 24 h, Assay 12(o), at 10 uM, qPCR, read-out: Induction of NRF2-regulated genes: NQO1 normalized fold-change",1.19
same,fold induction at 10 µM,[1]; [6],2
same,fold induction at 10 µM,"[1]; rounded fold change, WI-38 cells, 10 μM, 24 hrs (RP29 for Gr-4D), read-out: Summary of effects on NRF2-regulated genes: NQO1",1.31
same,fold induction at 10 µM,[1]; [7],2
same,fold induction at 10 µM,"[1]; 10 μM, 24 hrs, WI-38 cells, qPCR, normalized to B2M, n = 4, read-out: NQO1 expression, normalized fold change (NRF2-regulated gene)",1.31
same,fold induction at 10 µM,[1]; [8],1.44
same,fold induction at 10 µM,[1]; [9],2
same,fold induction at 10 µM,[1]; [10],1.31
same,fold induction at 10 µM,[1]; [11],1.31
same,F = Potential NRF2 Activation,[1]; summary score,0
same,"Exp. 1, induction of LC3A/B puncta (Up), total intensity normalized by total number of nuclei in the fields","[2]; Exp. 1, 10 μM, 10X objective, WI-38 cells",No induction
same,H = Potential Autophagy Induction,[2]; score,0
same,H = Potential Autophagy Induction,[2]; summary score,0
same,"Luminescence signal for ATP measurement, day-1 Average",[3],442035
same,"Luminescence signal for ATP measurement, day-2 Average",[3],577575
same,"Luminescence signal for ATP measurement, day-3 Average",[3],726850
same,"Luminescence signal for ATP measurement, day-4 Average",[3],977658
same,"Luminescence signal for ATP measurement, day-5 Average",[3],1021113
same,viability at 10 µM,[3],99.4%
same,O = Potential toxicity,"[3]; human, 5 days",1
same,Q = Potential toxicity,"[3]; human, 5 days",0
same,Reduction of ATP content after 5 days of continuous incubation,"[3]; human, 5 days",more than 40%
